Each structure is given as a SMILES string. The source made the active and inactive calls. No cut-off for these calls is given here. Bridge positions count the residues as written; N and C are the ends. Peptide text beside a SMILES is read from it.

This is an account of results in ChEMBL document CHEMBL5335815, “The Greater Celandine: Identification and Characterization of an Antimicrobial Peptide from Chelidonium majus” (J Nat Prod, 2024).

For one data set, the system named is Escherichia coli. Nature of the data set: Induction of BasS protein expression in Escherichia coli assessed as fold increase at 5 microg/ml. To be noted: dose 5.0 µg/ml. Format: functional.
The subject of data set [1] is Proteinase K (Engyodontium album). Nature of the data set: Inhibition of proteinase K (Engyodontium album).
Data set [2] is described as follows: Proteolytic stability assessed as proteinase K (unknown origin) mediated compound degradation incubated for 10 mins by LC-MS analysis. Format: ADME. To be noted: human.
Data set [3] can be described thus: Proteolytic stability assessed as proteinase K (unknown origin)-mediated compound degradation in presence of reduced and alkylated cysteines measured after 10 mins by LC-MS analysis. Format: ADME.

As to `CC[C@H](C)[C@H](NC(=O)[C@H](Cc1ccccc1)NC(=O)[C@H](Cc1ccccc1)NC(=O)[C@H](CCCNC(=N)N)NC(=O)[C@H](CCCNC(=N)N)NC(=O)[C@H](CCCCN)NC(=O)[C@H](CCCCN)NC(=O)[C@H](CC(=O)O)NC(=O)[C@@H](NC(=O)[C@H](CO)NC(=O)[C@H](CCCCN)NC(=O)[C@H](CS)NC(=O)[C@H](Cc1ccc(O)cc1)NC(=O)[C@H](CS)NC(=O)CNC(=O)[C@@H](N)CS)C(C)C)C(=O)N1CCC[C@H]1C(=O)N[C@H](C(=O)N[C@@H](CS)C(=O)N[C@@H](CC(C)C)C(=O)N[C@@H](CCCNC(=N)N)C(=O)N[C@@H](CO)C(=O)N[C@@H](CS)C(=O)N[C@@H](CS)C(=O)N[C@@H](CC(N)=O)C(=O)O)[C@@H](C)O` (H-CGCYCKSVDKKRRFFIPTCLRSCCN-OH), in the data set on Escherichia coli, the fold change (FC) came to 83.8.

As to `CC[C@H](C)[C@@H]1NC(=O)[C@H](Cc2ccccc2)NC(=O)[C@H](Cc2ccccc2)NC(=O)[C@H](CCCNC(=N)N)NC(=O)[C@H](CCCNC(=N)N)NC(=O)[C@H](CCCCN)NC(=O)[C@H](CCCCN)NC(=O)[C@H](CC(=O)O)NC(=O)[C@H](C(C)C)NC(=O)[C@H](CO)NC(=O)[C@H](CCCCN)NC(=O)[C@@H]2CSSC[C@@H](C(=O)N[C@@H](CC(N)=O)C(=O)O)NC(=O)[C@@H]3CSSC[C@H](N)C(=O)NCC(=O)N[C@@H](CSSC[C@H](NC(=O)[C@H]([C@@H](C)O)NC(=O)[C@@H]4CCCN4C1=O)C(=O)N[C@@H](CC(C)C)C(=O)N[C@@H](CCCNC(=N)N)C(=O)N[C@@H](CO)C(=O)N3)C(=O)N[C@@H](Cc1ccc(O)cc1)C(=O)N2` (H-CGCYCKSVDKKRRFFIPTCLRSCCN-OH; disulfide 1-23, 3-19, 5-24), the inhibition entry in data set [1] is “inactive”. For the same molecule, the Stability result is “Stable” in data set [2] and “Unstable” in data set [3].
